Legend:
ULK2 kinase = biological target: T1, ULK2 kinase (Homo sapiens, UniProt Q8IYT8); assay: Biochemical assay for ULK2 (coupled pyruvate kinase/lactate dehydrogenase assay); settings: 1 mM ATP, 1 nM ULK2; read-out: ULK2 (inhibition of biochemical activity), IC50
T1 construct: (residues 1-306 with N-terminal GST and His tag; ID NO: 2); purchased Signal Chem U02-11G
In short: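 Continuous PK/LDH-coupled NADH oxidation assay (A340) with 1 nM ULK2, 200 μM ULKtide and 1 mM ATP in Tris pH 7.5, 15 mM MgCl2, 1% DMSO, read 6 h at 30° C. Rates from the 2-3 h window converted to percent inhibition against no-compound and known-inhibitor controls; IC50 by four-parameter sigmoidal fit.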

ULK1 kinase = biological target: T2, ULK1 kinase (Homo sapiens, UniProt O75385, E37A/K38A); assay: Biochemical assay for ULK1 (coupled pyruvate kinase/lactate dehydrogenase assay); settings: 1 mM ATP, 0.1 nM ULK1; read-out: ULK1 (inhibition of biochemical activity), IC50
T2 construct: (residues 1-283; ID NO: 1); purchased Beryllium
T2 sequence (O75385 1-283 E37A/K38A): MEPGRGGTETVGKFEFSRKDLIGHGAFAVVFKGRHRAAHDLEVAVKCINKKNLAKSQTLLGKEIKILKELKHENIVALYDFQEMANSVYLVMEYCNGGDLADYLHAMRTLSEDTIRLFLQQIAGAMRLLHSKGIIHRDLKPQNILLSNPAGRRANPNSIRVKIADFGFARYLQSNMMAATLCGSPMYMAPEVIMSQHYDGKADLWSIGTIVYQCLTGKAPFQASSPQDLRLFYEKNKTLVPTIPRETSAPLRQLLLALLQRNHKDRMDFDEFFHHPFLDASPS
In short: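 IC50 values were fitted to percent inhibition, normalised with no-compound and known-inhibitor controls, using rates from 2–3 h of a 6 h read at 30 °C. ADP was coupled through pyruvate kinase/lactate dehydrogenase to NADH loss at 340 nm.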

T1 sequence (Q8IYT8 with tags, fused parts or gaps): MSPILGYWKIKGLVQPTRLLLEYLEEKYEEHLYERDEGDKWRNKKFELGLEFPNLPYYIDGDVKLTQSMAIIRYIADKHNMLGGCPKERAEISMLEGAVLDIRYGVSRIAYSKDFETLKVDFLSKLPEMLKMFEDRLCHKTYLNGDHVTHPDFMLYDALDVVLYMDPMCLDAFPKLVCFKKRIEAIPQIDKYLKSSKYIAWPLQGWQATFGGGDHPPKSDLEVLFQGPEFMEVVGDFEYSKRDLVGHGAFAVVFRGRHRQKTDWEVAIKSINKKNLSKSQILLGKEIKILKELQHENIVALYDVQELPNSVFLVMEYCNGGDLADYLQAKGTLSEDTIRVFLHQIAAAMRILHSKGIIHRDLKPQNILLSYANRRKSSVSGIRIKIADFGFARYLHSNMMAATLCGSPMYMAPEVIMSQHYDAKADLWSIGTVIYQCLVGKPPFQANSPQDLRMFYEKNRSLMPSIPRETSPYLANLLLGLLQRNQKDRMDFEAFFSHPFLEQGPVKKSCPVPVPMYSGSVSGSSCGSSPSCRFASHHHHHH

| SMILES | IC50 (ULK2 kinase) [nM] | IC50 (ULK1 kinase) [nM] |
| --- | --- | --- |
| CC/C(Nc1cnn(C(C)C)c1)=C1/C(=O)Nc2ccc(C(=O)N[C@H](C)C(F)(F)F)cc21 [Example 119] | 10 to 100 | ≤ 10 |
| CC/C(Nc1cn(C(C)C)nn1)=C1/C(=O)Nc2ccc(C(=O)NCC(F)(F)F)cc21 [Example 122] | 10 to 100 | 10 to 100 |
| CC/C(Nc1cccnc1)=C1/C(=O)Nc2ccc(C(=O)NCC(F)(F)F)cc21 [Example 124] | > 500 | 100 to 500 |
| CC/C(Nc1cnn(C(C)C)c1)=C1/C(=O)Nc2ccc(C(=O)N(C)CC(F)(F)F)cc21 [Example 125] | 10 to 100 | 10 to 100 |
| CC/C(Nc1cnn(C(C)C)c1)=C1/C(=O)Nc2ccc(C(=O)NCCOC)cc21 [Example 126] | 100 to 500 | 10 to 100 |
| CC/C(Nc1cnn(C(C)C)c1)=C1/C(=O)Nc2ccc(C(=O)NCCC#N)cc21 [Example 127] | 10 to 100 | 10 to 100 |
| CC/C(Nc1cnn(C(C)C)c1)=C1/C(=O)Nc2ccc(C(=O)NC[C@@H](C)OC)cc21 [Example 128] | 100 to 500 | 10 to 100 |
| CC/C(Nc1cnn(C(C)C)c1)=C1/C(=O)Nc2ccc(C(=O)NCC3CC(F)(F)C3)cc21 [Example 134] | 10 to 100 | ≤ 10 |
| CC/C(Nc1cnn(C(C)C)c1)=C1/C(=O)Nc2ccc(C(=O)NCCOC(F)(F)F)cc21 [Example 136] | 10 to 100 | ≤ 10 |
| CC/C(Nc1cnn(C(C)C)c1)=C1/C(=O)Nc2ccc(C(=O)NCC3CCC(C)(C)O3)cc21 (stereo not drawn) [Example 137] | 10 to 100 | ≤ 10 |
| CC/C(Nc1cnn(C(C)C)c1)=C1/C(=O)Nc2ccc(C(=O)NCC3CCC4(CCC4)O3)cc21 (stereo not drawn) [Example 138] | 100 to 500 | 10 to 100 |
| CC/C(Nc1ccc2nn(C(C)C)cc2c1)=C1/C(=O)Nc2ccc(C(=O)NCC(F)(F)F)cc21 [Example 142] | 10 to 100 | 10 to 100 |
| CC/C(Nc1cnn(C2CC(F)(F)C2)c1)=C1/C(=O)Nc2ccc(C(=O)NCC(F)(F)F)cc21 [Example 144] | 10 to 100 | ≤ 10 |
| CC/C(Nc1ccccn1)=C1/C(=O)Nc2ccc(C(=O)NCC(F)(F)F)cc21 [Example 145] | 100 to 500 | 10 to 100 |
| CC/C(Nc1cnn(C(F)F)c1)=C1/C(=O)Nc2ccc(C(=O)NCC(C)C)cc21 [Example 147] | 100 to 500 | 10 to 100 |
| CC/C(Nc1cnn(C(C)C)c1)=C1/C(=O)Nc2ccc(C(=O)NCC(C)(C)OC)cc21 [Example 148] | 100 to 500 | 10 to 100 |
| CC/C(Nc1cc(C(F)(F)F)ccn1)=C1/C(=O)Nc2ccc(C(=O)NCC(F)(F)F)cc21 [Example 149] | 10 to 100 | 10 to 100 |
| CC/C(Nc1cnn(C(C)C)c1)=C1/C(=O)Nc2ccc(C(=O)NCC3(F)CC3)cc21 [Example 152] | ≤ 10 | ≤ 10 |
| CC/C(Nc1cnn(CC)c1)=C1/C(=O)Nc2ccc(C(=O)NCC3(F)CC3)cc21 [Example 153] | ≤ 10 | ≤ 10 |
| CC/C(Nc1cnn(C)c1)=C1/C(=O)Nc2ccc(C(=O)NCC3(F)CC3)cc21 [Example 154] | 10 to 100 | ≤ 10 |
| CC/C(Nc1cnn(C(C)C)c1)=C1/C(=O)Nc2ccc(C(=O)NCC3(C#N)CC3)cc21 [Example 156] | 10 to 100 | ≤ 10 |
| CC/C(Nc1cnn(CC(C)OC)c1)=C1/C(=O)Nc2ccc(C(=O)NCC(F)(F)F)cc21 (stereo not drawn) [Example 157] | 100 to 500 | 10 to 100 |
| CC/C(Nc1cnn(CC(C)OC)c1)=C1/C(=O)Nc2ccc(C(=O)NCC(F)(F)F)cc21 (stereo not drawn) [Example 158] | 100 to 500 | 10 to 100 |
| CC/C(Nc1cnn(C(C)CC)c1)=C1/C(=O)Nc2ccc(C(=O)NCC(F)(F)F)cc21 (stereo not drawn) [Example 159] | 10 to 100 | 10 to 100 |
| CC/C(Nc1cnn(CC(F)(F)F)c1)=C1/C(=O)Nc2ccc(C(=O)NCC(C)(C)F)cc21 [Example 160] | 10 to 100 | ≤ 10 |
| CC/C(Nc1cnn(CC(F)F)c1)=C1/C(=O)Nc2ccc(C(=O)NCC(C)(C)F)cc21 [Example 161] | 10 to 100 | ≤ 10 |
| CC/C(Nc1cnn(C(C)C)c1)=C1/C(=O)Nc2ccc(C(=O)NCCC(F)(F)F)cc21 [Example 166] | ≤ 10 | ≤ 10 |

Reference: patent publication US20240150368A1, “ULK INHIBITORS AND METHODS OF USE THEREOF” (Deciphera Pharmaceuticals, LLC, priority 2022, published 2024)
